Results reported in ChEMBL document CHEMBL1201862, “PubChem BioAssay data set” (2004).
The source made the active and inactive calls.

Tests used:
[1] = biological target: T1, RNA-binding protein pos-1 (Caenorhabditis elegans, UniProt G5EF15); test: disruptors of C. elegans POS-1 RNA interaction – biochemical, fluorescence polarization, dose response (AID 1964);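 note: purified POS-1 fused to maltose binding protein made in E. coli; potency of compounds blocking POS-1 binding to fluorescent RNA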
T1 sequence (G5EF15 whole entry): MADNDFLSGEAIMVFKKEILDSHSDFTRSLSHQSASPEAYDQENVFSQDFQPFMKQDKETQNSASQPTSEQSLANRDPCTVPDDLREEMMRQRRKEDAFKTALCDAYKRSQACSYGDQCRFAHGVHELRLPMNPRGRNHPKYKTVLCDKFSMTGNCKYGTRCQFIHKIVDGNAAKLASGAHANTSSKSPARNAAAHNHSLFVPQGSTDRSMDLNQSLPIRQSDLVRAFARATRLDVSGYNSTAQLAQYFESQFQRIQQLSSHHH

[2] = biological target: T2, Zinc finger protein mex-5 (Caenorhabditis elegans, UniProt Q9XUB2); test: potency of MEX-5 RNA-binding blockers – biochemical, C. elegans, fluorescence polarization, dose response (AID 1960)
T2 sequence (Q9XUB2 whole entry): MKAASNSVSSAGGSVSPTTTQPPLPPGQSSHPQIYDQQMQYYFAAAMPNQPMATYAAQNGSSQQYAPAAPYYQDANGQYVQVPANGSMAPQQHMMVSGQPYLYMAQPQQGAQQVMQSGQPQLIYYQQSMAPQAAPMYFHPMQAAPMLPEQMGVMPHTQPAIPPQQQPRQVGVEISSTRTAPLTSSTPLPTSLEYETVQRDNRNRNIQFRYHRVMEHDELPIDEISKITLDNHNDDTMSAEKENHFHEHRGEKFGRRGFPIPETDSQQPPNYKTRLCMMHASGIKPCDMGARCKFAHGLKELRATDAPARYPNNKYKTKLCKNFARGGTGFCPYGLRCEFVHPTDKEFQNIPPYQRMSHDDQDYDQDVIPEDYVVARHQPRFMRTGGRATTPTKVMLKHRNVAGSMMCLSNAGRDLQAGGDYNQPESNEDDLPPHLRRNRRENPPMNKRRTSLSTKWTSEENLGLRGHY

[3] = biological target: T3, Endoribonuclease toxin MazF (Escherichia coli K-12, UniProt P0AE70); test: activation of MazEF endoribonuclease cleavage – biochemical, fluorescence, single-stranded RNA substrate, uHTS hits, dose response (AID 588481); format: functional
T3 sequence (P0AE70 whole entry): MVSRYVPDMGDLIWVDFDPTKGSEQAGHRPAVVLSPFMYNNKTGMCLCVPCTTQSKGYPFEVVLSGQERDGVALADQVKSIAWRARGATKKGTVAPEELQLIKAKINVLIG

[4] = biological target: T3, Endoribonuclease toxin MazF; test: substrate-only fluorescence increase artefacts – biochemical, single-stranded RNase substrate, counter-screen for MazEF activator project, dose response (AID 588502); format: functional
[5] = biological target: T4, Corticotropin-releasing factor receptor 2/Corticotropin-releasing factor-binding protein (Homo sapiens, UniProt P24387+Q13324); test: Dose Response confirmation of uHTS hits for small molecule antagonists of the CRF-binding protein and CRF-R2 receptor complex.; format: functional; conditions: read-out: IC50_Mean
T4 sequence (Q13324 whole entry): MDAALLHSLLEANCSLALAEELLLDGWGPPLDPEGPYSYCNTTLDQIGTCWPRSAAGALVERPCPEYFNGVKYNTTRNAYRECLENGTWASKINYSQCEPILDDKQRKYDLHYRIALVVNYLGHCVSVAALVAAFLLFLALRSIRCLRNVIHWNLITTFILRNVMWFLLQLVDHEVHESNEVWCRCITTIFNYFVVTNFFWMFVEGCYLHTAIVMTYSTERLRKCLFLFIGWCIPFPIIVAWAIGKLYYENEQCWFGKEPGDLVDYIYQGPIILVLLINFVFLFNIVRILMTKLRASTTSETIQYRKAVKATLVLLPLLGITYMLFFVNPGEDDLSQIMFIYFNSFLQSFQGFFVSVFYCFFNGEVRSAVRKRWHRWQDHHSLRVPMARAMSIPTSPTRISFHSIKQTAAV
T4 sequence (P24387 whole entry): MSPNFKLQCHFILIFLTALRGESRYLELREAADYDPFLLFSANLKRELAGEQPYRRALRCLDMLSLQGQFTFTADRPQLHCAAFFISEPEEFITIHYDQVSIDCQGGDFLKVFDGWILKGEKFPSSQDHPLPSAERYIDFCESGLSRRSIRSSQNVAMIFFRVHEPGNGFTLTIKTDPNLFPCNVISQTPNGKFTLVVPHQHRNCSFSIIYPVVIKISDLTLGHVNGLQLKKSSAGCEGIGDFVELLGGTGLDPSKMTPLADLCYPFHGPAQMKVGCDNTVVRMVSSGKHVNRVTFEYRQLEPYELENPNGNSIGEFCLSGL

[6] = biological target: T4, Corticotropin-releasing factor receptor 2/Corticotropin-releasing factor-binding protein; test: activators of CRF receptor 2 with binding protein – uHTS hits, confirmation (AID 602473); format: functional; conditions: read-out: EC50_Mean
[7] = blockers of CRF-binding protein–CRF-R2 complex – cell-based, uHTS hits, 384-well, dose response (AID 651639); format: functional, Homo sapiens; conditions: read-out: IC50_Mean
[8] = biological target: T5, Cytochrome P450 1A2 (Homo sapiens, UniProt P05177);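 note: PubChem cytochrome P450 panel assay, CYP1A2 panel member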
T5 sequence (P05177 whole entry): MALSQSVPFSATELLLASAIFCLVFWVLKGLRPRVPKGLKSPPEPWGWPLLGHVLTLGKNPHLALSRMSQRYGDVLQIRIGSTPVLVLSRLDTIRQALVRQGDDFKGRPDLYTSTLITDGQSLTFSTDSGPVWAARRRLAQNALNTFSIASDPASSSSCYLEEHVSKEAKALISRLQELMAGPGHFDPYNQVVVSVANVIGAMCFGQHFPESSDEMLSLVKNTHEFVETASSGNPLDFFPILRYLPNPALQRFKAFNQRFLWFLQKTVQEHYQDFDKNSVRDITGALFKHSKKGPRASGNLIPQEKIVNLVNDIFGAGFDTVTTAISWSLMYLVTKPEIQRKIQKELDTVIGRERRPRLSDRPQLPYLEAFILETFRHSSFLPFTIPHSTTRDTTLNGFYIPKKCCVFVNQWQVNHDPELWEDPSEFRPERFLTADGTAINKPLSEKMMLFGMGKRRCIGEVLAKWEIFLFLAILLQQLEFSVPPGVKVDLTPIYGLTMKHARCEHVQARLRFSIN

[9] = biological target: Cytochrome P450 3A4 (Homo sapiens, UniProt P08684);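 note: CYP3A4 tested as one member of a cytochrome P450 panel screen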
[10] = biological target: Cytochrome P450 2C9 (Homo sapiens, UniProt P11712)
[11] = biological target: T6, Bcl-2-related protein A1 (Mus musculus, UniProt Q07440); format: functional;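 note: confirmatory dose–response counterscreen on Bfl-1, used to check hits from a UBC13 polyubiquitin inhibitor campaign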
T6 sequence (Q07440 whole entry): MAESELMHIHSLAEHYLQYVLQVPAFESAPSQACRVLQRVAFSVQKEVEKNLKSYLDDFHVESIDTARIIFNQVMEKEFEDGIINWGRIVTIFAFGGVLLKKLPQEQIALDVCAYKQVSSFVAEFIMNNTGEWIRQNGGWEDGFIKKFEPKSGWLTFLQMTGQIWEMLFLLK

[12] = biological target: T7, Ubiquitin-conjugating enzyme E2 N (Homo sapiens, UniProt P61088); format: functional
T7 sequence (P61088 whole entry): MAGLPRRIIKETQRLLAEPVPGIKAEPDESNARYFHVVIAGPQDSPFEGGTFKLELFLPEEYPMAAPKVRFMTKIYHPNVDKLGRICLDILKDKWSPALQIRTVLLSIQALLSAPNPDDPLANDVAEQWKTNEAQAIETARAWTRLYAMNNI

[13] = biological target: T7, Ubiquitin-conjugating enzyme E2 N; format: functional; remark: listed apart in the source

Cytochrome P450 2C9, sequence (P11712 whole entry): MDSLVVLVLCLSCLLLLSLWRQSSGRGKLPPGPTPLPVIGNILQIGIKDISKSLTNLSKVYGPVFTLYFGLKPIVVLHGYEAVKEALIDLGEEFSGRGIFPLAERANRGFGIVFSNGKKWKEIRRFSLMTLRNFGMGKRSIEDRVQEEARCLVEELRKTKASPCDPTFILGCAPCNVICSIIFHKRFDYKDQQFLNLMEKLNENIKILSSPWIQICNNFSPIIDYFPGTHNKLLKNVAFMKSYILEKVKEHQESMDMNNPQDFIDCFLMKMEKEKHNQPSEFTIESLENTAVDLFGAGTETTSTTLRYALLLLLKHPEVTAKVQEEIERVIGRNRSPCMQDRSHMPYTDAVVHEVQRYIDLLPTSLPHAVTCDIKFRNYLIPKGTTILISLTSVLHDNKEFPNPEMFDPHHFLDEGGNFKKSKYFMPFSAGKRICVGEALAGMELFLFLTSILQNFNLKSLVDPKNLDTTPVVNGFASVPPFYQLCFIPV
Cytochrome P450 3A4, sequence (P08684 whole entry): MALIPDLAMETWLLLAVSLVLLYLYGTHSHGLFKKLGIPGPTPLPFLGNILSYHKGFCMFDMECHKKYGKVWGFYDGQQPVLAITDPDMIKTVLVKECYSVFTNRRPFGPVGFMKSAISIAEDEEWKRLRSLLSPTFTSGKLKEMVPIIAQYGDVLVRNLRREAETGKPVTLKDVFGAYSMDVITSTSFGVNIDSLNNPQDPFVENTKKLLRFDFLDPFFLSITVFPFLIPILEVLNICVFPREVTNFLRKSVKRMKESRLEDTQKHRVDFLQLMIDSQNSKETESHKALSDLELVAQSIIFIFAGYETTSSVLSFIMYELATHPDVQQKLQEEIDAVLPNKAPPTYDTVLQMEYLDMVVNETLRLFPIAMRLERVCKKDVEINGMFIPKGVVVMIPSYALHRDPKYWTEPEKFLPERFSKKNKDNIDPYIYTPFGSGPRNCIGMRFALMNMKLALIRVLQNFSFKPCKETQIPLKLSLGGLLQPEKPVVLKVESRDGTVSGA

| Compound | EC50 [1] | EC50 [2] | EC50 [3] | EC50 [4] | IC50 [5] | EC50 [6] | IC50 [7] | AC50 [8] | AC50 [9] | AC50 [10] | IC50 [11] | IC50 [12] | IC50 [13] |
| --- | --- | --- | --- | --- | --- | --- | --- | --- | --- | --- | --- | --- | --- |
| Cn1nc(C(F)(F)F)cc1-c1ccc(/C=C(\C#N)C(=O)c2ccccc2)s1 | 21.1 µM (inconclusive) | 11.2 µM (inconclusive) | > 99 µM (inactive) | > 99 µM (inactive) |  |  |  |  |  |  |  |  |  |
| CCOc1cc(C)ccc1OCc1nnc(SCC(=O)c2cccc([N+](=O)[O-])c2)n1C |  |  |  |  | 2.52 µM (active) | > 53 µM (inactive) | 2.11 µM (active) | 15.8 µM (inconclusive) | 1.41 µM (inconclusive) | inconclusive |  |  |  |
| COc1cc(C2C(C#N)=C(N)Oc3[nH]nc(-c4cccs4)c32)cc(OC)c1O (stereo not given) |  |  | > 99 µM (inactive) | 13.3 µM (active) |  |  |  |  |  |  | > 20 µM (inactive) | 3.38 µM (active) | 1.47 µM (active) |
